In ChEMBL document CHEMBL5291721, “A preclinical secondary pharmacology resource illuminates target-adverse drug reaction associations of marketed drugs” (Nat Commun, 2023):

Tests used:
Acetylcholinesterase = Acetylcholinesterase (Homo sapiens, UniProt P22303); assay type: functional
[1] = target: T1, Muscarinic acetylcholine receptor M2 (Homo sapiens, UniProt P08172)
T1 sequence (P08172 whole entry): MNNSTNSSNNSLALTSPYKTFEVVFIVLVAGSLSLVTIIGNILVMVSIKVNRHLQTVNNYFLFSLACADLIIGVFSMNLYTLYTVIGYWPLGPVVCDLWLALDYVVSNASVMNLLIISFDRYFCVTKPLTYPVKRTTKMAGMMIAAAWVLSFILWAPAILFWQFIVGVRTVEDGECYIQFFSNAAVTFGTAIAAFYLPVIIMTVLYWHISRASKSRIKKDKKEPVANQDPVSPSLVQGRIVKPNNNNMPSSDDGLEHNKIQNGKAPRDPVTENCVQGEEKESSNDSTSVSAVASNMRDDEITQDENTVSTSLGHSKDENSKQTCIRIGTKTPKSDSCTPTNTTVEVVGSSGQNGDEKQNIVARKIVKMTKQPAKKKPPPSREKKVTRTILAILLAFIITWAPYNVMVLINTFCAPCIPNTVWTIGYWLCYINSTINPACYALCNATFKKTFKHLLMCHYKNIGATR

D(1A) dopamine receptor = D(1A) dopamine receptor (Homo sapiens, UniProt P21728)
D(3) dopamine receptor = D(3) dopamine receptor (Homo sapiens, UniProt P35462)
D(3) dopamine receptor, sequence (P35462 whole entry): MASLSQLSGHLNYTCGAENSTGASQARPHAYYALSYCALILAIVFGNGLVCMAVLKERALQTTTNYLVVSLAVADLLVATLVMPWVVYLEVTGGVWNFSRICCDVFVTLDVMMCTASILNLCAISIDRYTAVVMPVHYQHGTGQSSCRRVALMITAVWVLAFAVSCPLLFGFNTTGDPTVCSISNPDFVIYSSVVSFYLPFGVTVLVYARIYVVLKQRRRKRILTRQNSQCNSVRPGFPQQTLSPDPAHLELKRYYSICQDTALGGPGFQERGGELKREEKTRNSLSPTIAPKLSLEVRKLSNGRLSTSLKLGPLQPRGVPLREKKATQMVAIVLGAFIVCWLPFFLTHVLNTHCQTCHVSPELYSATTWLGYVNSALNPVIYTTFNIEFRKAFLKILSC

Prothrombin = Prothrombin (Homo sapiens, UniProt P00734); assay type: functional
Histamine H3 receptor = Histamine H3 receptor (Homo sapiens, UniProt Q9Y5N1)
[2] = target: T2, 5-hydroxytryptamine receptor 1A (Homo sapiens, UniProt P08908)
T2 sequence (P08908 whole entry): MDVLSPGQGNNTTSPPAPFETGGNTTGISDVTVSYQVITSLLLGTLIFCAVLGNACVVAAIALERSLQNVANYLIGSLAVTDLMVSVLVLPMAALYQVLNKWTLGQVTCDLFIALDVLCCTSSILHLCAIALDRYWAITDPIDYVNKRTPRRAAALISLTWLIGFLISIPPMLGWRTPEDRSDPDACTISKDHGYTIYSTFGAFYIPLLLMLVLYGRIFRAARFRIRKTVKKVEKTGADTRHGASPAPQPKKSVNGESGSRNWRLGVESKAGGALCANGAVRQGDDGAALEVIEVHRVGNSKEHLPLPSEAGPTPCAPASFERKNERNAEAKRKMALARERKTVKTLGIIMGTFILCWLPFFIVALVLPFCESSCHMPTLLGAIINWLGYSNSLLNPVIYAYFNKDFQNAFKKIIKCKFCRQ

[3] = target: 5-hydroxytryptamine receptor 2B (Homo sapiens, UniProt P41595); assay type: functional, cell-based
5-hydroxytryptamine receptor 2B, sequence (P41595 whole entry): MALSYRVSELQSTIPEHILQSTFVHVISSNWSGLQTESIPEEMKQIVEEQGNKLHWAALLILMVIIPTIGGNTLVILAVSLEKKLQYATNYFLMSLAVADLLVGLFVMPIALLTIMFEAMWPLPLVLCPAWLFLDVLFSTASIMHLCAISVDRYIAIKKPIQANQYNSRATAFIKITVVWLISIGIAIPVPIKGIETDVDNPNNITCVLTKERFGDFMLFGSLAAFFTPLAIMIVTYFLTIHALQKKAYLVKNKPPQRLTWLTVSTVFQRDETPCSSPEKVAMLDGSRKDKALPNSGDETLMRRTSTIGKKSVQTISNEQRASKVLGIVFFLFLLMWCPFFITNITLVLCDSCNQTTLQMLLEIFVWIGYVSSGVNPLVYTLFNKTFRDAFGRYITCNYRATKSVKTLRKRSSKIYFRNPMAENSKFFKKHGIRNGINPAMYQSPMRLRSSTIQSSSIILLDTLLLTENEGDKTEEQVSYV

[4] = target: Voltage-gated inwardly rectifying potassium channel KCNH2 (Homo sapiens, UniProt Q12809); assay type: functional; conditions: read-out: AC50
Voltage-gated inwardly rectifying potassium channel KCNH2, sequence (Q12809 whole entry): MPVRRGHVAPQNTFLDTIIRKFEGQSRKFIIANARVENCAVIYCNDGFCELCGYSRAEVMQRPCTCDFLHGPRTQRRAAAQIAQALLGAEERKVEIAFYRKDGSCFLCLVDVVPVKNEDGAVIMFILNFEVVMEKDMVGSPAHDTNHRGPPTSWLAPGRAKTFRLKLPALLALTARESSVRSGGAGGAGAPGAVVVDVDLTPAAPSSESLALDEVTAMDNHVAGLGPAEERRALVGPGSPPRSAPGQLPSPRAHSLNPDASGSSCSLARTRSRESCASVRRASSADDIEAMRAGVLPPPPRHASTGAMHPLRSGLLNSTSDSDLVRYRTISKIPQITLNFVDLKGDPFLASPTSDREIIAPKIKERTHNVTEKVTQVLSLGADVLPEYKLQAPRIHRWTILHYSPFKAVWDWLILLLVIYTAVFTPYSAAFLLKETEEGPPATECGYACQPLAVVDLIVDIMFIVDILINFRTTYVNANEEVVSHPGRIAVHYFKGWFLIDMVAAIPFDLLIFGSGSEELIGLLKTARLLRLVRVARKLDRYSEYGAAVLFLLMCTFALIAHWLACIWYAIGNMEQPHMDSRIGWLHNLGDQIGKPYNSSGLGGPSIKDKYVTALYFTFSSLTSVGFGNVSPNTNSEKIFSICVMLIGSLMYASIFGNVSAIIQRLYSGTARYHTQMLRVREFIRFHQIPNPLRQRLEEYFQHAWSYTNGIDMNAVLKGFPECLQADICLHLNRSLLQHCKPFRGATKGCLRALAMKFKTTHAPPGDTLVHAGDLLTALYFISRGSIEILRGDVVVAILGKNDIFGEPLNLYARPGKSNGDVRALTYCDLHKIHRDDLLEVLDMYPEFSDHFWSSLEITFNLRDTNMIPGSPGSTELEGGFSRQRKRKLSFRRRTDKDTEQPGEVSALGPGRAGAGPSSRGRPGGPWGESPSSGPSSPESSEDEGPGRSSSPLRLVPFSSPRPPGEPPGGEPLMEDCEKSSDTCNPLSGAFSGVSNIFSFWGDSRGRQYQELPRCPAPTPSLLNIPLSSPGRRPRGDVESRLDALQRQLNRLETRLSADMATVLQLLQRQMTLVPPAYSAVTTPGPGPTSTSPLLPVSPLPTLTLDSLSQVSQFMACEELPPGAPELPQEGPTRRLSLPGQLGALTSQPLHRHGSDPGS

[5] = target: T3, Amine oxidase [flavin-containing] A (Homo sapiens, UniProt P21397); assay type: functional
T3 sequence (P21397 whole entry): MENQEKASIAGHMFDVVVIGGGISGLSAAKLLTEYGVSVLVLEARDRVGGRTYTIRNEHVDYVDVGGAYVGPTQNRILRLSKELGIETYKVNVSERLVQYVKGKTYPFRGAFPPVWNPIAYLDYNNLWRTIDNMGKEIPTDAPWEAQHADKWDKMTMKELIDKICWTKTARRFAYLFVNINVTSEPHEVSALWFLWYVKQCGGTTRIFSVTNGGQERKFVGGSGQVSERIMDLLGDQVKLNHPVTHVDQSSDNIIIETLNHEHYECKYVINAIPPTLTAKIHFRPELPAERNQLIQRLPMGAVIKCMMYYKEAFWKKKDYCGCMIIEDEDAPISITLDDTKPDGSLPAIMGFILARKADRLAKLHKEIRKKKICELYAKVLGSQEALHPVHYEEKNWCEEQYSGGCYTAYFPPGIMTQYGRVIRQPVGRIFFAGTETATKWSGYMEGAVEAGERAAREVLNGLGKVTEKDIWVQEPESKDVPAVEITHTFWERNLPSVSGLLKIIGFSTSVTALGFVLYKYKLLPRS

Mu-type opioid receptor = Mu-type opioid receptor (Homo sapiens, UniProt P35372)
[6] = target: cGMP-inhibited 3',5'-cyclic phosphodiesterase 3A (Homo sapiens, UniProt Q14432); assay type: functional
cGMP-inhibited 3',5'-cyclic phosphodiesterase 3A, sequence (Q14432 whole entry): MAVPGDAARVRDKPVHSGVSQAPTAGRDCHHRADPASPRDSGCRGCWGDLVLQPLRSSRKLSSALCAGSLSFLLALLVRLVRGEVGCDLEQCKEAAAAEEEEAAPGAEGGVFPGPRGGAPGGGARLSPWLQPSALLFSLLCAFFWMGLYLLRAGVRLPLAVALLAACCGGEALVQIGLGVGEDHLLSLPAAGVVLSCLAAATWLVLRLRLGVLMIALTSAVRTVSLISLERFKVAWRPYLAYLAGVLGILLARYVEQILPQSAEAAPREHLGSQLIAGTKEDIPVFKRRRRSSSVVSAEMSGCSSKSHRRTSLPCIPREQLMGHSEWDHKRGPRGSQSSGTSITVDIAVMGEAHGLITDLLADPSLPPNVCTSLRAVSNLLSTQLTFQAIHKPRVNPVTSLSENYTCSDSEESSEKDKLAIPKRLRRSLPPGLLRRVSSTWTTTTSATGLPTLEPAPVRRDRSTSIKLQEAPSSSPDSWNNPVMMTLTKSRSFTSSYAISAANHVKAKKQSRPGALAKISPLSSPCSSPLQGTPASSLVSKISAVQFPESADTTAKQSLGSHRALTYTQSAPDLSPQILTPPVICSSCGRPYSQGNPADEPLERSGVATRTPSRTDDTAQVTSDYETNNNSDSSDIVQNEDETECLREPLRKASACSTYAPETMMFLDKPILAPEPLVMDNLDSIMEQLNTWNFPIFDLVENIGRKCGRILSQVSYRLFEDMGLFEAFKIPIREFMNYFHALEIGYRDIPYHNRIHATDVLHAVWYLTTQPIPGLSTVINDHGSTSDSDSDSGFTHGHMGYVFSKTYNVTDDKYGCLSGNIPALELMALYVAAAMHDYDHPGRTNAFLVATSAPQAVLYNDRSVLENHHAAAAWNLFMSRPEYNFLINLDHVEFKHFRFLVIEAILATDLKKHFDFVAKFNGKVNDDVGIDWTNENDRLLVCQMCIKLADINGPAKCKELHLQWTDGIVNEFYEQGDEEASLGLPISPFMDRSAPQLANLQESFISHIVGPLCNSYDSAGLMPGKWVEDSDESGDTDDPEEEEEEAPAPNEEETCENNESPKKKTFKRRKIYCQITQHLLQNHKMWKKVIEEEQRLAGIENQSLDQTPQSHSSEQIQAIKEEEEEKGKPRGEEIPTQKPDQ

[7] = target: 3',5'-cyclic-AMP phosphodiesterase 4A (Homo sapiens, UniProt P27815); assay type: functional
[8] = target: T4, Prostaglandin G/H synthase 1 (Homo sapiens, UniProt P23219); assay type: functional
T4 sequence (P23219 whole entry): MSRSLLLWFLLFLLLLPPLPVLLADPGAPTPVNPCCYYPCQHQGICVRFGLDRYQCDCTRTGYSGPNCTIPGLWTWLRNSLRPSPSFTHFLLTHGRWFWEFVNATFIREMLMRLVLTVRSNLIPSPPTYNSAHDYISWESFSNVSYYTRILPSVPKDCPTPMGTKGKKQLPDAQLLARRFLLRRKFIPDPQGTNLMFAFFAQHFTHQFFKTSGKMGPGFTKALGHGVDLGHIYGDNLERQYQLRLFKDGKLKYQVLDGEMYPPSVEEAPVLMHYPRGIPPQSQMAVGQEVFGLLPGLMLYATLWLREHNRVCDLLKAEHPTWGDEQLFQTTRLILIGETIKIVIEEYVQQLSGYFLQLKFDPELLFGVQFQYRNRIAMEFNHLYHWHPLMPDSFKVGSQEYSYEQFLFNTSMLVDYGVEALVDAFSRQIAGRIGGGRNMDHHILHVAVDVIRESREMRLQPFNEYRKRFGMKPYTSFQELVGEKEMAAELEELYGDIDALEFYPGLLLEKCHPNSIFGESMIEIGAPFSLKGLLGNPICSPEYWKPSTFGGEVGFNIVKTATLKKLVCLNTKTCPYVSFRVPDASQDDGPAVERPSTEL

[9] = target: T4, Prostaglandin G/H synthase 1; assay type: functional; remark: listed apart in the source
[10] = target: Sodium-dependent noradrenaline transporter (Homo sapiens, UniProt P23975)
[11] = target: Sodium-dependent dopamine transporter (Homo sapiens, UniProt Q01959)
Sodium-dependent dopamine transporter, sequence (Q01959 whole entry): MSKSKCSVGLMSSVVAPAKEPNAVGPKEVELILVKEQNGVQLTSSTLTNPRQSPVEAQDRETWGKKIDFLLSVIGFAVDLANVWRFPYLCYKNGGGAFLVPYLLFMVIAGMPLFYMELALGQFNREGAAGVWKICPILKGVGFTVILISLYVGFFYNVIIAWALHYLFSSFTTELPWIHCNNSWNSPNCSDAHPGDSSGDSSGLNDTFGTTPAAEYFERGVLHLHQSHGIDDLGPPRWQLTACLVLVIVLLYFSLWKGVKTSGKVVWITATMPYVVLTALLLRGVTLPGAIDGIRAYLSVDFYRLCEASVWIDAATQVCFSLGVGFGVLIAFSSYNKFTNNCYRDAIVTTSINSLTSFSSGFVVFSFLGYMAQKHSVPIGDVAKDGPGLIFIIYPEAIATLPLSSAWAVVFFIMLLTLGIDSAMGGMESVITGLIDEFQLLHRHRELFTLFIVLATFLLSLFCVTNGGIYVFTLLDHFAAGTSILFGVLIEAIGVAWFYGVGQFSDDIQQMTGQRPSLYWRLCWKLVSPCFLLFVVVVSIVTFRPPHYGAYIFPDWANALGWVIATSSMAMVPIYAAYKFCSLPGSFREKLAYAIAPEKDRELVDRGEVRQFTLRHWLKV

Thromboxane A2 receptor [12] = target: T5, Thromboxane A2 receptor (Homo sapiens, UniProt P21731); assay type: functional, cell-based
T5 sequence (P21731 whole entry): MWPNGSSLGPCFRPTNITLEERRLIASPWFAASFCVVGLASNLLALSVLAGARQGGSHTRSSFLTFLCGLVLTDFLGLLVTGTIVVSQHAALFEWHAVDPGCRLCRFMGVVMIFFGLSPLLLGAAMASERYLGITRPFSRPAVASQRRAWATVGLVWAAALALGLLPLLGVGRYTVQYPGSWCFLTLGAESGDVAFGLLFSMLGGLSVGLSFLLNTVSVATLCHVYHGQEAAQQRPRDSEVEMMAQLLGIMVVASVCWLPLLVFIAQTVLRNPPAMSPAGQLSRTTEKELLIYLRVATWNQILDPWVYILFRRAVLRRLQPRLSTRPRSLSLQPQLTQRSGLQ

Thromboxane A2 receptor [13] = target: T5, Thromboxane A2 receptor; assay type: functional, cell-based; remark: listed apart in the source
Also: assay procedure not described here.

Acetylcholinesterase, sequence (P22303 whole entry): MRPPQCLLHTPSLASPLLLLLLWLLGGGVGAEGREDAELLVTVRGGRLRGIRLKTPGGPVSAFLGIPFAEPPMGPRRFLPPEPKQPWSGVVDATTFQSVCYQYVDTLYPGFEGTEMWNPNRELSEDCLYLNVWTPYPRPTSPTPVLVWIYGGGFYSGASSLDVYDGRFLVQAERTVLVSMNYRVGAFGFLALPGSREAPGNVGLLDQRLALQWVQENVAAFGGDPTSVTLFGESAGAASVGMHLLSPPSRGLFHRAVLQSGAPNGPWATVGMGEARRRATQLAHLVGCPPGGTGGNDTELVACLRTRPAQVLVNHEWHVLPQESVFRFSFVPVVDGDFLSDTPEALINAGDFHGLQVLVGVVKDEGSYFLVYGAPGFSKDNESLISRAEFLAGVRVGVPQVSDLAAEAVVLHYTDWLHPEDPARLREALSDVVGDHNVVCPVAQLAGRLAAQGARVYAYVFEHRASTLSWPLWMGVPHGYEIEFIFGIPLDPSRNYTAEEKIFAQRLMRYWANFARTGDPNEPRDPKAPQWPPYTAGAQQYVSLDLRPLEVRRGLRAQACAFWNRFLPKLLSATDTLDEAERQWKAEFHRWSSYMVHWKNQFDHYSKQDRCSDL

| SMILES | AC50 (Acetylcholinesterase) [µM] | AC50 [1] [µM] | AC50 (D(1A) dopamine receptor) [µM] | AC50 (D(3) dopamine receptor) [µM] | AC50 (Prothrombin) [µM] | AC50 (Histamine H3 receptor) [µM] | AC50 [2] [µM] | AC50 [3] [µM] | AC50 [4] [nM] | AC50 [5] [µM] | AC50 (Mu-type opioid receptor) [µM] | AC50 [6] [µM] | AC50 [7] [µM] | AC50 [8] [µM] | AC50 [9] [µM] | AC50 [10] [µM] | AC50 [11] [µM] | AC50 (Thromboxane A2 receptor [12]) [µM] | AC50 (Thromboxane A2 receptor [13]) [µM] |
| --- | --- | --- | --- | --- | --- | --- | --- | --- | --- | --- | --- | --- | --- | --- | --- | --- | --- | --- | --- |
| CN(CC(=O)O)C(=N)N [CREATINE] | > 30 | > 30 | > 30 | > 30 | > 30 | > 30 | > 30 | > 30 | > 30000 | > 30 | > 30 | > 30 | > 30 | > 30 | > 30 | > 30 | > 30 | > 30 | > 30 |
| CN(C)CCN(Cc1ccc(Cl)cc1)c1ccccn1 [CHLOROPYRAMINE] | > 30 | 2.88 | 2.23 | 1.35 | > 30 | > 30 | > 30 | > 30 | 540 | > 30 | 5.22 | > 30 | > 30 | > 30 | > 30 | 19.4 | 0.21 | > 30 | > 30 |
| CNC(=O)c1cc(Oc2ccc(NC(=O)Nc3ccc(Cl)c(C(F)(F)F)c3)c(F)c2)ccn1 [REGORAFENIB] | > 30 | > 30 | 5.61 | > 30 | > 30 | > 30 | 1.42 | > 30 | > 10000 | > 30 | 4.43 | > 30 | > 30 | > 30 | 17.5 | 20 | 1.04 | > 30 | 6.35 |
| O=C1[C@H]2CCCC[C@H]2C(=O)N1CCCCN1CCN(c2nsc3ccccc23)CC1 [PEROSPIRONE] | > 30 | 7.34 | 0.054 | 0.003 | > 30 | > 30 | 0.003 | > 30 | 2300 | > 30 | 9.84 | > 30 | > 30 | > 30 | > 30 | 2.98 | 3.31 | > 30 | 7.44 |
| O=C(O)c1cc(=O)c2ccccc2o1 [CHROMOCARB] | > 30 | > 30 | > 30 | > 30 | > 30 | > 30 | > 30 | > 30 | > 30000 | > 30 | > 30 | > 30 | > 30 | 23.9 | > 30 | > 30 | > 30 | > 30 | > 30 |
| CC1(C)O[C@@H]2C[C@H]3[C@@H]4CCC5=CC(=O)CC[C@]5(C)[C@@]4(F)[C@@H](O)C[C@]3(C)[C@]2(C(=O)CCl)O1 [HALCINONIDE] | > 30 | > 30 | > 30 | > 30 | > 30 | > 30 | > 30 | > 30 | > 30000 | > 30 | > 30 | > 30 | > 30 | > 30 | > 30 | > 30 | > 30 | > 30 | > 30 |
| CN1CCN(CCCN2c3ccccc3Sc3ccc(S(=O)(=O)N(C)C)cc32)CC1 [THIOPROPERAZINE] | 29 | 2.66 | 0.13 | 0.003 | > 30 | 13.7 | 6.09 | > 30 | 400 | > 30 | 11.6 | > 30 | > 30 | > 30 | 23.6 | 16.8 | 13.3 | > 30 | 9.38 |
| CN(C)CCC(c1ccccc1)c1ccccn1 (centres undefined) [PHENIRAMINE] | > 30 | 24.7 | > 30 | > 30 | > 30 | > 30 | > 30 | > 30 | > 30000 | > 30 | > 30 | > 30 | > 30 | > 30 | > 30 | 26.3 | > 30 | > 30 | > 30 |
| CC(C)[N+](C)(CCOC(=O)C1c2ccccc2Oc2ccccc21)C(C)C [PROPANTHELINE] | > 30 | 0.003 | > 30 | > 30 | > 30 | > 30 | > 30 | > 30 | 2000 | > 30 | > 30 | > 30 | > 30 | > 30 | > 30 | > 30 | > 30 | > 30 | > 30 |
| CCC(=O)O[C@@H](O[P@](=O)(CCCCc1ccccc1)CC(=O)N1C[C@H](C2CCCCC2)C[C@H]1C(=O)O)C(C)C [FOSINOPRIL] | > 30 | > 30 | > 30 | > 30 | > 30 | > 30 | > 30 | > 30 | > 30000 | > 30 | > 30 | > 30 | > 30 | > 30 | > 30 | > 30 | > 30 | > 30 | > 30 |
| Cc1cc2c(OCC(O)CNC(C)C)cccc2[nH]1 (centres undefined) [MEPINDOLOL] | > 30 | > 30 | > 30 | 19.9 | > 30 | > 30 | 0.0041 | > 30 | > 30000 | > 30 | 21 | > 30 | > 30 | 15.2 | 10.9 | 5.31 | > 30 | > 30 | > 30 |
